For six molecules, Ki results are on record in US12723063B2, “GIPR-agonist compounds” (Eli Lilly and Company, priority 2019, dated 2026).

One assay addresses T1, human GcgR (Homo sapiens, UniProt P47871).
T1 construct: expressed in transfected cells; crude membranes
The assay is described as follows: [125I]-Glucagon binding, SPA with WGA beads, 0.1% bacitracin. Conditions: geometric mean, read-out: hGcgR Ki. In a few lines:
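SPA competition binding with WGA beads on crude membranes from HEK293 cells stably expressing hGcgR. Buffer: 25 mM HEPES pH 7.4, 2.5 mM CaCl2, 1 mM MgCl2, 0.1% bacitracin, 0.003% Tween-20; 10-point 3-fold dilutions, NSB with 1 μM Gcg.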

For the next assay, the target named is T2, human GIPR (Homo sapiens, UniProt P48546).
T2 construct: expressed in transfected cells; crude membranes
T2 sequence (P48546 22-466): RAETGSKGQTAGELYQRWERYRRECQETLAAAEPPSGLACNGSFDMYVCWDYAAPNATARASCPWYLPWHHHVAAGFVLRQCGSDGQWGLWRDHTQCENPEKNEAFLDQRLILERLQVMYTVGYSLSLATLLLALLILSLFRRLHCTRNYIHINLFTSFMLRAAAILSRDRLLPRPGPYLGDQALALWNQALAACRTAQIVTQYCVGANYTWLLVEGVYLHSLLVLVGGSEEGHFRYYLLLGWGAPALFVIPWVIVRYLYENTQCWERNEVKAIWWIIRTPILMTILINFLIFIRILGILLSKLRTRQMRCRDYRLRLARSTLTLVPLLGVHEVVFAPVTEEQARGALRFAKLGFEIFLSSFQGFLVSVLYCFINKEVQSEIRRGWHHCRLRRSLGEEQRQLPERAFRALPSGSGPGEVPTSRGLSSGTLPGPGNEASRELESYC
The assay is described as follows: [125I]-GIP binding, SPA with WGA beads, 0.1% bacitracin. The settings on record: geometric mean, read-out: hGIPR Ki. The gist of the method:
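Ki values are geometric means (SEM, n independent days), derived from four-parameter nonlinear regression of IC50. Membranes came from hGIPR-expressing CHO cells.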

The target of the next assay is T3, human GLP-1R (Homo sapiens, UniProt P43220).
T3 construct: expressed in transfected cells; crude membranes
T3 sequence (P43220 24-463): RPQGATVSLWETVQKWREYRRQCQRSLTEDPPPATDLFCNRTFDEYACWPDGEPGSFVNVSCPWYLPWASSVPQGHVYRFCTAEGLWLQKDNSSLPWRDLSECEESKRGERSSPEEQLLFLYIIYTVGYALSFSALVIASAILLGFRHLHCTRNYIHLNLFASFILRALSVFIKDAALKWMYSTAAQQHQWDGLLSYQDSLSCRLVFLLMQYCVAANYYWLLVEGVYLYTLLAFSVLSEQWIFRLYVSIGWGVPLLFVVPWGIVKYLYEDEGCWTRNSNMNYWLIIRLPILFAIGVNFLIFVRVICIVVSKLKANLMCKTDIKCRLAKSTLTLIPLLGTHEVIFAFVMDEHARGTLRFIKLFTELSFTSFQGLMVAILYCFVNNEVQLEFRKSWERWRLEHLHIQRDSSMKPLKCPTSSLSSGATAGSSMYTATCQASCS
Nature of the assay: [125I]-GLP-1 binding, SPA with WGA beads, 0.1% bacitracin. Conditions: geometric mean, read-out: hGLP1R Ki. In a few lines:
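Binding buffer was 25 mM HEPES pH 7.4 with 2.5 mM CaCl2, 1 mM MgCl2, 0.1% (w/v) bacitracin, 0.003% Tween-20 and EDTA-free protease inhibitors. Four-parameter regression gave IC50, converted to Ki (geometric mean, SEM, n independent days).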

The Ki is a measure of affinity in units of concentration, obtained from inhibition or displacement.

*1 amine or outer side, *2 acyl side, *3 side chain or, on linkers, in order; H or OH if unused. Where a SMILES comes first, the peptide text is derived from it. Side-chain parts run from the residue outwards. [ ]: non-standard residue; d: D form. The star is where a group is joined. C20 diacid = O=C(O)CCCCCCCCCCCCCCCCCCC(=O)*; C18 diacid = O=C(O)CCCCCCCCCCCCCCCCC(=O)*; αMePhe(2-F) = C[C@](N)(Cc1ccccc1F)C(=O)O; γGlu = O=C(O)[C@H](CCC(=O)[*:2])N[*:1]; 4Pal = N[C@@H](Cc1ccncc1)C(=O)O; αMeL = CC(C)C[C@](C)(N)C(=O)O; Orn = NCCC[C@H](N)C(=O)O; AEEA = NCCOCCOCC(=O)O; Aib = CC(C)(N)C(=O)O

T1 sequence (P47871 26-477): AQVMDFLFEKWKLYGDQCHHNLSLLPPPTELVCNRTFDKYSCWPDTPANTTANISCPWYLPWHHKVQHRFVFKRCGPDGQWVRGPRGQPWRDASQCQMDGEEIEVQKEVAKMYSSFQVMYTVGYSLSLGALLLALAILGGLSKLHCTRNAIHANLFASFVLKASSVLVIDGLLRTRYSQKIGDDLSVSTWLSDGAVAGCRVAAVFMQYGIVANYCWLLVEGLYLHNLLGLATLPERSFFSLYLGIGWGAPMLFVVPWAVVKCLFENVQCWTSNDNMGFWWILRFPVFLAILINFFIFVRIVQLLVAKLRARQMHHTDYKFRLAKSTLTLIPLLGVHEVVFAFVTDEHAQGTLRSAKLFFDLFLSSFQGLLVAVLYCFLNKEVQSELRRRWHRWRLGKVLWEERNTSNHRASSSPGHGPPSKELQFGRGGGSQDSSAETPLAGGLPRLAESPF

On to `CC[C@H](C)[C@H](NC(=O)[C@H](Cc1ccccc1)NC(=O)[C@@H](NC(=O)CNC(=O)[C@H](CCC(=O)O)NC(=O)C(C)(C)NC(=O)[C@@H](N)Cc1ccc(O)cc1)[C@@H](C)O)C(=O)N[C@@H](CO)C(=O)N[C@@H](CC(=O)O)C(=O)N[C@@H](Cc1ccc(O)cc1)C(=O)N[C@@H](CO)C(=O)N[C@H](C(=O)N[C@@](C)(CC(C)C)C(=O)N[C@@H](CC(C)C)C(=O)N[C@@H](CC(=O)O)C(=O)N[C@@H](CCCN)C(=O)N[C@@H](CCCCNC(=O)COCCOCCNC(=O)COCCOCCNC(=O)CC[C@H](NC(=O)CCCCCCCCCCCCCCCCC(=O)O)C(=O)O)C(=O)N[C@@H](Cc1c[nH]cn1)C(=O)N[C@@H](CCC(N)=O)C(=O)NC(C)(C)C(=O)N[C@@H](CC(=O)O)C(=O)N[C@@H](Cc1ccccc1)C(=O)N[C@H](C(=O)N[C@@H](CCC(=O)O)C(=O)N[C@@H](Cc1ccncc1)C(=O)N[C@@H](CC(C)C)C(=O)N[C@@H](CC(C)C)C(=O)N[C@@H](CCC(=O)O)C(=O)N[C@@H](C)C(=O)NCC(=O)N1CCC[C@H]1C(=O)N[C@@H](CO)C(=O)N[C@@H](CO)C(=O)NCC(=O)N[C@@H](C)C(=O)N1CCC[C@H]1C(=O)N1CCC[C@H]1C(=O)N1CCC[C@H]1C(=O)N[C@@H](CO)C(N)=O)C(C)C)[C@@H](C)CC` [Example 87] (H-Y[Aib]EGTFISDYSI[αMeL]LD[Orn]K([AEEA-AEEA-γGlu-C18 diacid])HQ[Aib]DFVE[4Pal]LLEAGPSSGAPPPS-NH2), for which the values for the Ki on human GcgR, at human GIPR and at human GLP-1R were 576 nM, 0.0538 nM and 849 nM, respectively.
For `CC[C@H](C)[C@H](NC(=O)[C@H](CO)NC(=O)[C@H](Cc1ccc(O)cc1)NC(=O)[C@H](CC(=O)O)NC(=O)[C@H](CO)NC(=O)[C@@H](NC(=O)[C@](C)(Cc1ccccc1F)NC(=O)[C@@H](NC(=O)CNC(=O)[C@H](CCC(=O)O)NC(=O)C(C)(C)NC(=O)[C@@H](N)Cc1ccc(O)cc1)[C@@H](C)O)[C@@H](C)CC)C(=O)N[C@@H](CC(C)C)C(=O)N[C@@H](CC(C)C)C(=O)N[C@@H](CC(=O)O)C(=O)N[C@@H](CCCCN)C(=O)N[C@H](C(=O)N[C@@H](Cc1c[nH]cn1)C(=O)N[C@@H](CCC(N)=O)C(=O)NC(C)(C)C(=O)N[C@@H](CC(=O)O)C(=O)N[C@@H](Cc1ccccc1)C(=O)N[C@H](C(=O)N[C@@H](CCC(=O)O)C(=O)N[C@@H](Cc1ccncc1)C(=O)N[C@@H](CCCCNC(=O)COCCOCCNC(=O)COCCOCCNC(=O)CC[C@H](NC(=O)CCCCCCCCCCCCCCCCCCC(=O)O)C(=O)O)C(=O)N[C@@H](CC(C)C)C(=O)N[C@@H](CCC(=O)O)C(=O)N[C@@H](C)C(=O)NCC(=O)N1CCC[C@H]1C(=O)N[C@@H](CO)C(=O)N[C@@H](CO)C(=O)NCC(=O)N[C@@H](C)C(=O)N1CCC[C@H]1C(=O)N1CCC[C@H]1C(=O)N1CCC[C@H]1C(=O)N[C@@H](CO)C(N)=O)C(C)C)[C@@H](C)CC` [Example 120] (H-Y[Aib]EGT[αMePhe(2-F)]ISDYSILLDKIHQ[Aib]DFVE[4Pal]K([AEEA-AEEA-γGlu-C20 diacid])LEAGPSSGAPPPS-NH2), the inhibition constant Ki on human GcgR is 575 nM; at human GIPR it was 0.171 nM; on human GLP-1R, above 912 nM.
For `CC[C@H](C)[C@H](NC(=O)[C@H](CO)NC(=O)[C@H](Cc1ccc(O)cc1)NC(=O)[C@H](CC(=O)O)NC(=O)[C@H](CO)NC(=O)[C@@H](NC(=O)[C@](C)(Cc1ccccc1F)NC(=O)[C@@H](NC(=O)CNC(=O)[C@H](CCC(=O)O)NC(=O)C(C)(C)NC(=O)[C@@H](N)Cc1ccc(O)cc1)[C@@H](C)O)[C@@H](C)CC)C(=O)N[C@@H](C)C(=O)N[C@@H](CC(C)C)C(=O)N[C@@H](CC(=O)O)C(=O)N[C@@H](CCCCN)C(=O)N[C@H](C(=O)N[C@@H](Cc1c[nH]cn1)C(=O)N[C@@H](CCC(N)=O)C(=O)NC(C)(C)C(=O)N[C@@H](CCC(=O)O)C(=O)N[C@@H](Cc1ccccc1)C(=O)N[C@H](C(=O)N[C@@H](CC(N)=O)C(=O)N[C@@H](Cc1ccc(O)cc1)C(=O)N[C@@H](CCCCNC(=O)COCCOCCNC(=O)COCCOCCNC(=O)CC[C@H](NC(=O)CCCCCCCCCCCCCCCCC(=O)O)C(=O)O)C(=O)N[C@@H](CC(C)C)C(=O)N[C@@H](C)C(=O)NCC(=O)NCC(=O)N1CCC[C@H]1C(=O)N[C@@H](CO)C(=O)N[C@@H](CO)C(=O)NCC(=O)N[C@@H](C)C(=O)N1CCC[C@H]1C(=O)N1CCC[C@H]1C(=O)N1CCC[C@H]1C(=O)N[C@@H](CO)C(N)=O)C(C)C)[C@@H](C)CC` [Example 94] (H-Y[Aib]EGT[αMePhe(2-F)]ISDYSIALDKIHQ[Aib]EFVNYK([AEEA-AEEA-γGlu-C18 diacid])LAGGPSSGAPPPS-NH2) the same measures were 114 nM, 0.031 nM and above 909 nM.
For `CC[C@H](C)[C@H](NC(=O)[C@H](CCCCN)NC(=O)[C@H](CC(=O)O)NC(=O)[C@H](CC(C)C)NC(=O)[C@](C)(CC(C)C)NC(=O)[C@@H](NC(=O)[C@H](CO)NC(=O)[C@H](Cc1ccc(O)cc1)NC(=O)[C@H](CC(=O)O)NC(=O)[C@H](CO)NC(=O)[C@@H](NC(=O)[C@H](Cc1ccccc1)NC(=O)[C@@H](NC(=O)CNC(=O)[C@H](CCC(=O)O)NC(=O)C(C)(C)NC(=O)[C@@H](N)Cc1ccc(O)cc1)[C@@H](C)O)[C@@H](C)CC)[C@@H](C)CC)C(=O)N[C@@H](Cc1c[nH]cn1)C(=O)N[C@@H](CCC(N)=O)C(=O)NC(C)(C)C(=O)N[C@@H](CC(=O)O)C(=O)N[C@@H](Cc1ccccc1)C(=O)N[C@H](C(=O)N[C@@H](CCC(=O)O)C(=O)N[C@@H](Cc1ccncc1)C(=O)N[C@@H](CCCCNC(=O)COCCOCCNC(=O)COCCOCCNC(=O)CC[C@H](NC(=O)CCCCCCCCCCCCCCCCCCC(=O)O)C(=O)O)C(=O)N[C@@H](CC(C)C)C(=O)N[C@@H](CCC(=O)O)C(=O)NCC(=O)NCC(=O)N1CCC[C@H]1C(=O)N[C@@H](CO)C(=O)N[C@@H](CO)C(=O)NCC(=O)N[C@@H](C)C(=O)N1CCC[C@H]1C(=O)N1CCC[C@H]1C(=O)N1CCC[C@H]1C(=O)N[C@@H](CO)C(N)=O)C(C)C` [Example 109] (H-Y[Aib]EGTFISDYSI[αMeL]LDKIHQ[Aib]DFVE[4Pal]K([AEEA-AEEA-γGlu-C20 diacid])LEGGPSSGAPPPS-NH2), the Ki at human GcgR was above 960 nM; on human GIPR, 0.117 nM; at human GLP-1R, above 908 nM.
As to `CC[C@H](C)[C@H](NC(=O)[C@H](Cc1ccccc1)NC(=O)[C@@H](NC(=O)CNC(=O)[C@H](CCC(=O)O)NC(=O)C(C)(C)NC(=O)[C@@H](N)Cc1ccc(O)cc1)[C@@H](C)O)C(=O)N[C@@H](CO)C(=O)N[C@@H](CC(=O)O)C(=O)N[C@@H](Cc1ccc(O)cc1)C(=O)N[C@@H](CO)C(=O)N[C@H](C(=O)N[C@@](C)(CC(C)C)C(=O)N[C@@H](CC(C)C)C(=O)N[C@@H](CC(=O)O)C(=O)N[C@@H](CCC(=O)O)C(=O)N[C@@H](CCCCNC(=O)COCCOCCNC(=O)COCCOCCNC(=O)CC[C@H](NC(=O)CCCCCCCCCCCCCCCCCCC(=O)O)C(=O)O)C(=O)N[C@@H](Cc1c[nH]cn1)C(=O)N[C@@H](CCC(N)=O)C(=O)NC(C)(C)C(=O)N[C@@H](CC(=O)O)C(=O)N[C@@H](Cc1ccccc1)C(=O)N[C@H](C(=O)N[C@@H](CCC(=O)O)C(=O)N[C@@H](Cc1ccncc1)C(=O)N[C@@H](CC(C)C)C(=O)N[C@@H](CC(C)C)C(=O)N[C@@H](C)C(=O)N[C@@H](CCC(N)=O)C(=O)NCC(=O)N1CCC[C@H]1C(=O)N[C@@H](CO)C(=O)N[C@@H](CO)C(=O)NCC(=O)N[C@@H](C)C(=O)N1CCC[C@H]1C(=O)N1CCC[C@H]1C(=O)N1CCC[C@H]1C(=O)N[C@@H](CO)C(N)=O)C(C)C)[C@@H](C)CC` [Example 84] (H-Y[Aib]EGTFISDYSI[αMeL]LDEK([AEEA-AEEA-γGlu-C20 diacid])HQ[Aib]DFVE[4Pal]LLAQGPSSGAPPPS-NH2), the Ki on human GcgR was above 958 nM; on human GIPR it was 0.0584 nM; at human GLP-1R it was 325 nM.
For `CC[C@H](C)[C@H](NC(=O)[C@H](CO)NC(=O)[C@H](Cc1ccc(O)cc1)NC(=O)[C@H](CC(=O)O)NC(=O)[C@H](CO)NC(=O)[C@@H](NC(=O)[C@H](Cc1ccccc1)NC(=O)[C@@H](NC(=O)CNC(=O)[C@H](CCC(=O)O)NC(=O)[C@@H](C)NC(=O)[C@@H](N)Cc1ccc(O)cc1)[C@@H](C)O)[C@@H](C)CC)C(=O)N[C@@H](CC(C)C)C(=O)N[C@@H](CC(C)C)C(=O)N[C@@H](CC(=O)O)C(=O)N[C@@H](CCCCN)C(=O)N[C@@H](CCCCNC(=O)COCCOCCNC(=O)COCCOCCNC(=O)CC[C@H](NC(=O)CCCCCCCCCCCCCCCCCCC(=O)O)C(=O)O)C(=O)N[C@@H](C)C(=O)N[C@@H](CCC(N)=O)C(=O)N[C@@H](CCC(N)=O)C(=O)N[C@@H](CC(=O)O)C(=O)N[C@@H](Cc1ccccc1)C(=O)N[C@H](C(=O)N[C@@H](CC(N)=O)C(=O)N[C@@H](Cc1c[nH]c2ccccc12)C(=O)N[C@@H](CC(C)C)C(=O)N[C@@H](CC(C)C)C(=O)N[C@@H](C)C(=O)NCC(=O)NCC(=O)N1CCC[C@H]1C(=O)N[C@@H](CO)C(=O)N[C@@H](CO)C(=O)NCC(=O)N[C@@H](C)C(=O)N1CCC[C@H]1C(=O)N1CCC[C@H]1C(=O)N1CCC[C@H]1C(=O)N[C@@H](CO)C(N)=O)C(C)C` [Example 12] (H-Y[dA]EGTFISDYSILLDKK([AEEA-AEEA-γGlu-C20 diacid])AQQDFVNWLLAGGPSSGAPPPS-NH2), the Ki on human GcgR came to 134 nM; on human GIPR, 0.0876 nM; on human GLP-1R, 46.8 nM.
